Measurements reported in ChEMBL document CHEMBL1140645, “Synthesis and in vitro activity of 2-thiazolylhydrazone derivatives compared with the activity of clotrimazole against clinical isolates of Candida spp” (Bioorg Med Chem Lett, 2007).
In brackets after ≈: the same amount, converted by molar mass.

Experiments:
[1] = tested on: Candida albicans; assay: Antifungal activity against Candida albicans after 24 hrs by broth microdilution method; assay type: functional
[2] = Cytotoxicity against human EAhy926 cells assessed as cell survival fraction at 5 ug/ml after 24 hrs by trypan blue exclusion test; conditions: ea.hy 926, at 5 µg/mL
[3] = Cytotoxicity against human EAhy926 cells assessed as cell survival fraction at 0.05 ug/ml after 24 hrs by trypan blue exclusion test; conditions: ea.hy 926, at 0.05 µg/mL
[4] = tested on: Pichia kudriavzevii; assay: Antifungal activity against Candida krusei after 24 hrs by broth microdilution method; assay type: functional
[5] = tested on: Nakaseomyces glabratus; assay: Antifungal activity against Candida glabrata after 24 hrs by broth microdilution method; assay type: functional
[6] = tested on: Candida tropicalis; assay: Antifungal activity against Candida tropicalis after 24 hrs by broth microdilution method; assay type: functional
[7] = Cytotoxicity against human EAhy926 cells assessed as cell survival fraction at 50 ug/ml after 24 hrs by trypan blue exclusion test; conditions: ea.hy 926, at 50 µg/mL
[8] = tested on: Candida parapsilosis; assay: Antifungal activity against Candida parapsilosis after 24 hrs by broth microdilution method; assay type: functional; conditions: Lodderomyces parapsilosis
[9] = tested on: [Candida] sake; assay: Antifungal activity against Candida sake after 24 hrs by broth microdilution method; assay type: functional; conditions: Fermentozyma sake
[10] = Cytotoxicity against human EAhy926 cells assessed as cell survival fraction at 0.5 ug/ml after 24 hrs by trypan blue exclusion test; conditions: ea.hy 926, at 0.5 µg/mL

| SMILES | MIC [1] [µg/mL] | viability at 24 h, 5 ug/ml [2] [%] | viability at 24 h, 0.05 ug/ml [3] [%] | MIC [4] [µg/mL] | MIC [5] [µg/mL] | MIC [6] [µg/mL] | viability at 24 h, 50 ug/ml [7] [%] | MIC [8] [µg/mL] | MIC [9] [µg/mL] | viability at 24 h, 0.5 ug/ml [10] [%] |
| --- | --- | --- | --- | --- | --- | --- | --- | --- | --- | --- |
| N#Cc1ccc(-c2csc(NN=C3CCCC3)n2)cc1 | 2 (≈ 7.08 µM) | 81 | 88.9 | 32 (≈ 113 µM) | 0.5 (≈ 1.77 µM) | 32 (≈ 113 µM) | 76 | 128 (≈ 453 µM) | 32 (≈ 113 µM) | 84.7 |
| CC1CCCC/C1=N\Nc1nc(-c2ccc(Br)cc2)cs1 (stereo unspecified) | 4 (≈ 11 µM) |  |  | 64 (≈ 176 µM) | 2 (≈ 5.49 µM) | 32 (≈ 87.8 µM) |  | 8 (≈ 22 µM) | 16 (≈ 43.9 µM) |  |
| c1ccc(-c2ccc(-c3csc(NN=C4CCCC4)n3)cc2)cc1 | 16 (≈ 48 µM) |  |  | > 128 | > 128 | 64 (≈ 192 µM) |  | > 128 | 32 (≈ 96 µM) |  |
| c1ccc(-c2csc(NN=C3CCCCCC3)n2)cc1 | 0.5 (≈ 1.75 µM) | 80 | 94.7 | 8 (≈ 28 µM) | > 128 | 8 (≈ 28 µM) | 54.5 | 8 (≈ 28 µM) | 16 (≈ 56.1 µM) | 87.5 |
| Cc1ccc(-c2csc(NN=C3CCCC3)n2)cc1 | 0.25 (≈ 0.921 µM) | 80 | 85.4 | 64 (≈ 236 µM) | 0.5 (≈ 1.84 µM) | 4 (≈ 14.7 µM) | 75 | 128 (≈ 472 µM) | 16 (≈ 59 µM) | 82 |
| COc1ccc(-c2csc(N/N=C3\CCCC(C)C3)n2)cc1 (stereo unspecified) | 0.5 (≈ 1.59 µM) | 72.7 | 83.3 | 2 (≈ 6.34 µM) | > 128 | 2 (≈ 6.34 µM) | 54.5 | 1 (≈ 3.17 µM) | 8 (≈ 25.4 µM) | 80 |
| CC1CCC/C(=N\Nc2nc(-c3ccc(F)cc3)cs2)C1 (stereo unspecified) | 0.5 (≈ 1.65 µM) | 60 | 80 | 4 (≈ 13.2 µM) | > 128 | 4 (≈ 13.2 µM) | 52.9 | 1 (≈ 3.3 µM) | 8 (≈ 26.4 µM) | 76.9 |
| O=[N+]([O-])c1cccc(-c2csc(NN=C3CCCC3)n2)c1 | 1 (≈ 3.31 µM) |  |  | > 128 | 0.5 (≈ 1.65 µM) | 64 (≈ 212 µM) |  | > 128 | 16 (≈ 52.9 µM) |  |
| O=[N+]([O-])c1ccc(-c2csc(NN=C3CCCC3)n2)cc1 | 8 (≈ 26.5 µM) |  |  | 32 (≈ 106 µM) | 0.5 (≈ 1.65 µM) | 64 (≈ 212 µM) |  | > 128 | 16 (≈ 52.9 µM) |  |
| COc1ccc(-c2csc(NN=C3CCCC3)n2)cc1 | 0.5 (≈ 1.74 µM) | 76.6 | 85 | 32 (≈ 111 µM) | 2 (≈ 6.96 µM) | 64 (≈ 223 µM) | 66 | 8 (≈ 27.8 µM) | 32 (≈ 111 µM) | 82.4 |
| CC1CCCC/C1=N\Nc1nc(-c2cccc([N+](=O)[O-])c2)cs1 (stereo unspecified) | 0.5 (≈ 1.51 µM) | 85.7 | 88.8 | > 128 | 16 (≈ 48.4 µM) | 64 (≈ 194 µM) | 83.3 | 8 (≈ 24.2 µM) | 16 (≈ 48.4 µM) | 86 |
| CC1CCC/C(=N\Nc2nc(-c3ccc(Cl)cc3)cs2)C1 (stereo unspecified) | 0.5 (≈ 1.56 µM) | 50 | 73 | 4 (≈ 12.5 µM) | > 128 | 2 (≈ 6.25 µM) | 28.6 | 1 (≈ 3.13 µM) | 2 (≈ 6.25 µM) | 70 |
| Clc1ccc(-c2csc(NN=C3CCCC3)n2)cc1 | 0.25 (≈ 0.857 µM) | 81 | 86 | 64 (≈ 219 µM) | 0.5 (≈ 1.71 µM) | 32 (≈ 110 µM) | 64.9 | 8 (≈ 27.4 µM) | 16 (≈ 54.8 µM) | 89.2 |
| CC1CCCC/C1=N\Nc1nc(-c2ccc(-c3ccccc3)cc2)cs1 (stereo unspecified) | 32 (≈ 88.5 µM) |  |  | 16 (≈ 44.3 µM) | 64 (≈ 177 µM) | 64 (≈ 177 µM) |  | 16 (≈ 44.3 µM) | 16 (≈ 44.3 µM) |  |
| Cc1ccc(-c2csc(N/N=C3\CCCC(C)C3)n2)cc1 (stereo unspecified) | 0.5 (≈ 1.67 µM) | 72.7 | 84 | 0.5 (≈ 1.67 µM) | 32 (≈ 107 µM) | 0.5 (≈ 1.67 µM) | 38.5 | 0.5 (≈ 1.67 µM) | 2 (≈ 6.68 µM) | 83.3 |
| Brc1ccc(-c2csc(NN=C3CCCC3)n2)cc1 | 2 (≈ 5.95 µM) |  |  | > 128 | 2 (≈ 5.95 µM) | ≥ 128 |  | 128 (≈ 381 µM) | 32 (≈ 95.2 µM) |  |
| CC1CCC/C(=N\Nc2nc(-c3ccc(C#N)cc3)cs2)C1 (stereo unspecified) | 0.5 (≈ 1.61 µM) | 50 | 68.8 | 4 (≈ 12.9 µM) | > 128 | 2 (≈ 6.44 µM) | 25 | 0.5 (≈ 1.61 µM) | 4 (≈ 12.9 µM) | 68.7 |
